Data taken from ChEMBL document CHEMBL2396582, “Large conductance Ca(2+)-activated K(+) channel (BKCa) activating properties of a series of novel N-arylbenzamides: Channel subunit dependent effects” (Bioorg Med Chem, 2013).
Activity calls are given as the source filed them. The calls are words filed in the database; no cut-off is given here.

Experiments:
Assay type in all cases: cell-based
[1] = biological target: Calcium-activated potassium channel subunit alpha-1 (Homo sapiens) (UniProt Q12791); test: Activation of human BKCA alpha channel expressed in HEK293 cells assessed as increase in intracellular calcium level at 100 uM after 30 mins
[2] = biological target: T1, Calcium-activated potassium channel alpha/beta 1 (Homo sapiens) (UniProt Q12791+Q16558); test: Activation of human BKCA alpha/beta1 channel expressed in HEK293 cells assessed as increase of rubidium efflux after 10 mins in presence paxilline
[3] = biological target: Calcium-activated potassium channel subunit alpha-1 (Homo sapiens) (UniProt Q12791); test: Activation of human BKCA alpha channel expressed in HEK293 cells assessed as increase of rubidium efflux at 100 uM after 10 mins in presence of paxilline
[4] = biological target: T1, Calcium-activated potassium channel alpha/beta 1 (Homo sapiens); test: Activation of human BKCA alpha/beta1 channel expressed in HEK293 cells assessed as increase of rubidium efflux after 10 mins in presence iberiotoxin
[5] = biological target: Calcium-activated potassium channel subunit alpha-1 (Homo sapiens) (UniProt Q12791); test: Activation of human BKCA alpha channel expressed in HEK293 cells assessed as increase of rubidium efflux at 100 uM after 10 mins in presence of iberiotoxin
[6] = biological target: T1, Calcium-activated potassium channel alpha/beta 1 (Homo sapiens); test: Activation of human BKCA alpha/beta1 channel expressed in HEK293 cells assessed as increase of rubidium efflux after 10 mins relative to control
[7] = biological target: Calcium-activated potassium channel subunit alpha-1 (Homo sapiens) (UniProt Q12791); test: Activation of human BKCA alpha channel expressed in HEK293 cells assessed as increase of rubidium efflux after 10 mins relative to control
[8] = biological target: T1, Calcium-activated potassium channel alpha/beta 1 (Homo sapiens); test: Activation of human BKCA alpha/beta1 channel expressed in HEK293 cells assessed as increase of rubidium efflux after 10 mins
[9] = biological target: Calcium-activated potassium channel subunit alpha-1 (Homo sapiens) (UniProt Q12791); test: Activation of human BKCA alpha channel expressed in HEK293 cells assessed as increase of rubidium efflux after 10 mins
[10] = biological target: Calcium-activated potassium channel subunit alpha-1 (Homo sapiens) (UniProt Q12791); test: Activation of human BKCA alpha channel expressed in HEK293 cells assessed as increase in intracellular calcium level at 50 uM after 30 mins
[11] = biological target: Calcium-activated potassium channel subunit alpha-1 (Homo sapiens) (UniProt Q12791); test: Activation of human BKCA alpha channel expressed in HEK293 cells assessed as increase in intracellular calcium level at 10 uM after 30 mins
[12] = biological target: Calcium-activated potassium channel subunit alpha-1 (Homo sapiens) (UniProt Q12791); test: Activation of human BKCA alpha channel expressed in HEK293 cells assessed as increase in intracellular calcium level at 0.1 uM after 30 mins

Calcium-activated potassium channel subunit alpha-1 (Homo sapiens), sequence (Q12791 whole entry): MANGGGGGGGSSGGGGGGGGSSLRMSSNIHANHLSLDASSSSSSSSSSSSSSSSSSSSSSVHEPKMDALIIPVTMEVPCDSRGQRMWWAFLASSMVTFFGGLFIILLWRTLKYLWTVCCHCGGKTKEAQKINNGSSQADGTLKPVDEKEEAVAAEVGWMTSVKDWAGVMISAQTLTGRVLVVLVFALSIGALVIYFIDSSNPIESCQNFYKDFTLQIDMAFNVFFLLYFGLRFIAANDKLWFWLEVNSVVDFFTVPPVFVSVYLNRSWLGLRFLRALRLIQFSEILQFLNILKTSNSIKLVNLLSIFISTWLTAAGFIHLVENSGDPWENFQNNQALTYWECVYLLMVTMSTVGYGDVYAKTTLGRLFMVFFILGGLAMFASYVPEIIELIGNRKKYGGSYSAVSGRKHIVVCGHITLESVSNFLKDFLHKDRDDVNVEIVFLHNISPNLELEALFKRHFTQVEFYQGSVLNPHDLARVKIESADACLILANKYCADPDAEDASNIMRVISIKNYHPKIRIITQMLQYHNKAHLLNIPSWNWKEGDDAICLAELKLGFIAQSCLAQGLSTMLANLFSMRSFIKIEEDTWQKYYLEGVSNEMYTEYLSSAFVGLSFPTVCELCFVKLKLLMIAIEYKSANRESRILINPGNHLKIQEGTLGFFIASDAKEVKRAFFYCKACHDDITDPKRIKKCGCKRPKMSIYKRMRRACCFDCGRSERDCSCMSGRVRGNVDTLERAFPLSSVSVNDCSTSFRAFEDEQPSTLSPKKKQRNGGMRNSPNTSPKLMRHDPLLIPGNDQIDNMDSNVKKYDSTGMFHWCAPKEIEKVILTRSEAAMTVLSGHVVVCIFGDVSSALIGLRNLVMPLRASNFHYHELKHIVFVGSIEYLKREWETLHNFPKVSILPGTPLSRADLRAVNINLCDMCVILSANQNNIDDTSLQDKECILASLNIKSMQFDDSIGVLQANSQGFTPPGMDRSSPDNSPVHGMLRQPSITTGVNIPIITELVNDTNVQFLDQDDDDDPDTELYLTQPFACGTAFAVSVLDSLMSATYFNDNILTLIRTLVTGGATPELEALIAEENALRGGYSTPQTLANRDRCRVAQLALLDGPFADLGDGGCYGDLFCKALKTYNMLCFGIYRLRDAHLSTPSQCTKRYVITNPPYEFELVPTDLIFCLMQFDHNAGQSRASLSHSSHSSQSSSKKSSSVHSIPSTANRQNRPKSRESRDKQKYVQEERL

## O=c1[nH]c2cc(C(F)(F)F)ccc2n1-c1cc(C(F)(F)F)ccc1O
[1]
  Activity: 5.3%
[2]
  Activity: inactive
[3]
  Activity: inactive
[4]
  Activity: inactive
[5]
  Activity: inactive
[6]
  Emax: 76.6%
[7]
  Emax: 61.7%
[8]
  EC40: 790 nM
[9]
  EC40: 350 nM

## C=C[C@@]1(C)CC(=O)[C@]2(O)[C@@]3(C)[C@@H](O)CCC(C)(C)[C@@H]3[C@H](O)[C@H](OC(C)=O)[C@@]2(C)O1
[10]
  Activity: 22.3%

## CNc1ccc2oc(C[C@H]3O[C@@]4(CC[C@H]3C)O[C@H]([C@H](C)C(=O)c3ccc[nH]3)[C@H](C)C[C@H]4C)nc2c1C(=O)O
[11]
  Activity: 416%

## COc1ccc(Cl)cc1C(=O)Nc1ccncc1
[2]
  Activity: inactive
[3]
  Activity: inactive
[4]
  Activity: inactive
[5]
  Activity: inactive
[6]
  Emax: 65.1%
[7]
  Emax: 99.2%
[8]
  EC40: 4160 nM
[9]
  EC40: 1120 nM

## COc1ccc(Cl)cc1C(=O)Nc1ccccn1
[2]
  Activity: inactive
[3]
  Activity: inactive
[4]
  Activity: inactive
[5]
  Activity: inactive
[6]
  Emax: 42%
[7]
  Emax: 49.1%
[8]
  EC40: 46800 nM
[9]
  EC40: 4470 nM

## Cc1ccccc1C(=O)Nc1cc(Cl)ccc1O
[2]
  Activity: inactive
[3]
  Activity: inactive
[4]
  Activity: inactive
[5]
  Activity: inactive
[6]
  Emax: 56.8%
[7]
  Emax: 59.7%
[8]
  EC40: 3630 nM
[9]
  EC40: 2950 nM

## CCOc1ccccc1C(=O)Nc1cc(Cl)ccc1O
[1]
  Activity: 6.2%
[2]
  Activity: inactive
[3]
  Activity: inactive
[4]
  Activity: inactive
[5]
  Activity: inactive
[6]
  Emax: 99.5%
[7]
  Emax: 69.9%
[8]
  EC40: 120 nM
[9]
  EC40: 210 nM

## COc1ccc(Cl)cc1C(=O)Nc1cccnc1
[2]
  Activity: inactive
[3]
  Activity: inactive
[4]
  Activity: inactive
[5]
  Activity: inactive
[6]
  Emax: 68.8%
[7]
  Emax: 72.5%
[8]
  EC40: 3470 nM
[9]
  EC40: 310 nM

## Cc1ccc(NC(=O)c2ccccc2O)c([N+](=O)[O-])c1
[2]
  Activity: inactive
[3]
  Activity: inactive
[4]
  Activity: inactive
[5]
  Activity: inactive
[6]
  Emax: 54.4%
[7]
  Emax: 86.4%
[8]
  EC40: 1410 nM
[9]
  EC40: 560 nM

## CC(C)[C@@]1(O)[C@@H](OC(=O)c2cc[nH]c2)[C@@]2(O)[C@]3(C)C[C@@]4(O)O[C@@]5([C@H](O)[C@@H](C)CC[C@]35O)[C@@]2(O)[C@@]41C
[12]
  Activity: 38.1%

## O=C(Nc1cc(Cl)ccc1O)c1ccccc1
[2]
  Activity: inactive
[3]
  Activity: inactive
[4]
  Activity: inactive
[5]
  Activity: inactive
[6]
  Emax: 32.9%
[7]
  Emax: 62.5%
[9]
  EC40: 1410 nM
